Measurements from patent publication US20240293551A1, “USE OF ST-TYPE LIPID COMPOUNDS IN PREPARATION OF NUCLEIC ACID DELIVERY REAGENT AND RELATED PRODUCT” (INSTITUTE OF BASIC MEDICAL SCIENCES CHINESE ACADEMY OF …, priority 2021, published 2024).

Test system: PGY-sRNA-26
Assay: In vivo delivery study of lipid-nucleic acid mixture (oral gavage, RT-qPCR of PGY-sRNA-26 in tissues)
Set-up: species or system mouse
Conditions: C57BL/6 mice, gavage, 100 μg lipid: 10 nmol PGY-sRNA-26, 12 hours; for delivery efficacy over each tissue and blood tested (broad-spectrum delivery): all tissues and blood tested; for oral delivery of single-stranded sRNA nucleic acids into mouse intestinal tissue: intestine
Procedure: 10 nmol of small RNA (as shown in Table 2) was dissolved in 400 μl of DEPC-treated water in a glass tube, 10 μl of the corresponding lipid stock solution was added such that the lipid mass in the system was 100 μg. The mixture was mixed thoroughly, heated in a 90° C. water bath for 15 minutes, and then cooled naturally to obtain the lipid nucleic acid mixture of lipid and small RNA.
C57BL/6 male mice, approximately 6 weeks old, weighing 20-24 g, were obtained from Beijing Vital River Laboratory Animal Technology Co., Ltd. The mice were housed in the SPF-grade animal facility at the Animal Center of the Institute of Basic Medical Sciences, Chinese Academy of Medical Sciences. The mice were fasted for 12 hours before gavage administration.
The resultant lipid nucleic acid mixture was orally administered to each mouse at a dose of 100 μg lipid: 10 nmol single-stranded 3′-methylated small RNA PGY-sRNA-26.
• 1) Blank group (n=4): mice were administered with 500 μl saline by gavage, this group served as a blank control; • 2) Free uptake group (n=4): mice were directly administered with small RNA PGY-sRNA-26 solution (10 nmol/mouse, 500 μl) by gavage, this group served as a negative control; • 3) Lipid-treated group (n=4): mice were administered with 500 μl lipid nucleic acid mixture prepared in step 2 by gavage.
After 12 hours of gavage administration, 500 μl blood from the eyeball of each mouse was sampled, added to 1.5 ml Trizol Reagent LS (purchased from Invitrogen), thoroughly mixed for lysis. 3 ml of Trizol Reagent LSwas added to tissue samples and homogenized for complete lysis, wherein the sampled tissues include heart, liver, spleen, lung, kidney, stomach, intestine, brain, blood, femur. RNA was extracted from 1 ml of the blood or the tissue lysate following the steps below: • Centrifuge at 4° C., 12,000 rpm for 5 min, discard the precipitate, transfer Trizol to a new centrifuge tube; • Add chloroform at 200 μL chloroform/mL Trizol, shake well, stand at room temperature for 5 min; • Centrifuge at 4° C., 12,000 rpm for 15 min; • Take the upper aqueous phase to another centrifuge tube, add isopropanol at 0.4 mL isopropanol/mL Trizol, mix well, and stand at low temperature for 10-20 min; • Centrifuge at 4° C., 12,000 rpm for 15 min, discard the supernatant, RNA precipitated at the bottom of the tube; • Add 1 mL of 75% ethanol, gently shake the centrifuge tube, suspend the precipitate; • Centrifuge at 4° C., 12,000 rpm for 15 min, discard the supernatant, add 1 mL of 75% ethanol, gently shake the centrifuge tube, suspend the precipitate; • Centrifuge at 4° C., 12,000 rpm for 15 min, discard the supernatant, air-dry at room temperature, dissolve RNA samples in 50 μL RNase-free H2O, measure OD value to quantify RNA concentration. 3.3 Reverse Transcription of sRNA to cDNA:
The reverse transcription system is as follows: Template RNA (200 ng/μL) 10 μL, 10×RT Buffer 2.0 μL, 25×dNTP Mix (100 mM) 0.8 μL, U6 RT stem-loop primer (10 μM) 2.0 μL, PGY-sRNA-26 RT stem-loop primer (10 μM) 2.0 μL, MultiScribe™ Reverse Transcriptase (50 U/μL) 1.0 μL, RNAse Inhibitor (40 U/μL) 1.0 μL, nuclease-free H2O 1.2 μL. After transient centrifugation, the reverse transcription system was placed in a PCR machine with the following reaction conditions: (1) 25° C., 10 min; (2) 37° C., 120 min; (3) 85° C., 5 min; (4) 4° C., stop reaction. After the reaction, add 20 μL RNAse-free ddH2O, adjust the final volume to 40 μL. The stem-loop primers used in this reverse transcription process were synthesized by Beijing Tianyi Huiyuan Biotechnology Co., Ltd. (U6 was used as a standard reference gene to calculate its relative expression, because U6 RT primer was used as a reference gene in relative quantification of RT-qPCR reactions for small RNA): […]

SMILES: C[C@H](/C=C/[C@H](C)C(C)(C)O)[C@H]1CC[C@H]2/C(=C/C=C3C[C@@H](O)C[C@H](O)C3)CCC[C@]12C [Lipid 545]
- delivery efficacy over each tissue and blood tested (broad-spectrum delivery): exhibited the best delivery efficacy
- oral delivery of single-stranded sRNA nucleic acids into mouse blood: can effectively orally deliver
- oral delivery of single-stranded sRNA nucleic acids into mouse brain tissue: can effectively orally deliver
- oral delivery of single-stranded sRNA nucleic acids into mouse femur: can effectively orally deliver
- oral delivery of single-stranded sRNA nucleic acids into mouse heart tissue: can effectively orally deliver
- oral delivery of single-stranded sRNA nucleic acids into mouse intestinal tissue: can effectively orally deliver
- oral delivery of single-stranded sRNA nucleic acids into mouse kidney tissue: can effectively orally deliver
- oral delivery of single-stranded sRNA nucleic acids into mouse liver tissue: can effectively orally deliver
- oral delivery of single-stranded sRNA nucleic acids into mouse lung tissue: can effectively orally deliver
- oral delivery of single-stranded sRNA nucleic acids into mouse spleen tissue: can effectively orally deliver
- oral delivery of single-stranded sRNA nucleic acids into mouse stomach tissue: can effectively orally deliver

SMILES: C[C@]12CCC(=O)C=C1CC[C@@H]1[C@@H]2CC[C@@]2(C)[C@H]1CC[C@]2(C)O [Lipid 546]
- delivery efficacy over each tissue and blood tested (broad-spectrum delivery): exhibited the best delivery efficacy
- oral delivery of single-stranded sRNA nucleic acids into mouse blood: can effectively orally deliver
- oral delivery of single-stranded sRNA nucleic acids into mouse brain tissue: can effectively orally deliver
- oral delivery of single-stranded sRNA nucleic acids into mouse femur: can effectively orally deliver
- oral delivery of single-stranded sRNA nucleic acids into mouse heart tissue: can effectively orally deliver
- oral delivery of single-stranded sRNA nucleic acids into mouse intestinal tissue: can effectively orally deliver
- oral delivery of single-stranded sRNA nucleic acids into mouse kidney tissue: can effectively orally deliver
- oral delivery of single-stranded sRNA nucleic acids into mouse liver tissue: can effectively orally deliver
- oral delivery of single-stranded sRNA nucleic acids into mouse lung tissue: can effectively orally deliver
- oral delivery of single-stranded sRNA nucleic acids into mouse spleen tissue: can effectively orally deliver
- oral delivery of single-stranded sRNA nucleic acids into mouse stomach tissue: can effectively orally deliver

SMILES: C[C@H]1C[C@@H]2[C@H]([C@@H](O)C[C@@]3(C)[C@H]2CC[C@]3(O)C(=O)CO)[C@@]2(C)C=CC(=O)C=C12 [Lipid 547]
- delivery efficacy over each tissue and blood tested (broad-spectrum delivery): exhibited the best delivery efficacy
- oral delivery of single-stranded sRNA nucleic acids into mouse blood: can effectively orally deliver
- oral delivery of single-stranded sRNA nucleic acids into mouse femur: can effectively orally deliver
- oral delivery of single-stranded sRNA nucleic acids into mouse heart tissue: can effectively orally deliver
- oral delivery of single-stranded sRNA nucleic acids into mouse intestinal tissue: can effectively orally deliver
- oral delivery of single-stranded sRNA nucleic acids into mouse kidney tissue: can effectively orally deliver
- oral delivery of single-stranded sRNA nucleic acids into mouse liver tissue: can effectively orally deliver
- oral delivery of single-stranded sRNA nucleic acids into mouse lung tissue: can effectively orally deliver
- oral delivery of single-stranded sRNA nucleic acids into mouse spleen tissue: can effectively orally deliver
- oral delivery of single-stranded sRNA nucleic acids into mouse stomach tissue: can effectively orally deliver

SMILES: C[C@]12CC[C@H](O)C[C@@H]1CC[C@@H]1[C@@H]2CC[C@]2(C)[C@@H](O)CC[C@@H]12 [Lipid 548, 5α-androstanediol (3S,5S,8R,9S,10S,13S,14S,17S)-10,13-dimethyl-2,3,4,5,6,7,8,9,11,12,14,15,16,17-tetradecahydro-1H-cyclopenta[a]phenanthrene-3,17-diol]
- delivery efficacy over each tissue and blood tested (broad-spectrum delivery): exhibited the best delivery efficacy
- oral delivery of single-stranded sRNA nucleic acids into mouse blood: can effectively orally deliver
- oral delivery of single-stranded sRNA nucleic acids into mouse brain tissue: can effectively orally deliver
- oral delivery of single-stranded sRNA nucleic acids into mouse femur: can effectively orally deliver
- oral delivery of single-stranded sRNA nucleic acids into mouse heart tissue: can effectively orally deliver
- oral delivery of single-stranded sRNA nucleic acids into mouse intestinal tissue: can effectively orally deliver
- oral delivery of single-stranded sRNA nucleic acids into mouse kidney tissue: can effectively orally deliver
- oral delivery of single-stranded sRNA nucleic acids into mouse liver tissue: can effectively orally deliver
- oral delivery of single-stranded sRNA nucleic acids into mouse lung tissue: can effectively orally deliver
- oral delivery of single-stranded sRNA nucleic acids into mouse spleen tissue: can effectively orally deliver
- oral delivery of single-stranded sRNA nucleic acids into mouse stomach tissue: can effectively orally deliver

SMILES: C[C@]12CCC(=O)C=C1CC[C@@H]1[C@@H]2CC[C@@]2(C)[C@H]1CC[C@]2(O)C(=O)CO [Lipid 549]
- delivery efficacy over each tissue and blood tested (broad-spectrum delivery): exhibited the best delivery efficacy
- oral delivery of single-stranded sRNA nucleic acids into mouse blood: can effectively orally deliver
- oral delivery of single-stranded sRNA nucleic acids into mouse brain tissue: can effectively orally deliver
- oral delivery of single-stranded sRNA nucleic acids into mouse femur: can effectively orally deliver
- oral delivery of single-stranded sRNA nucleic acids into mouse heart tissue: can effectively orally deliver
- oral delivery of single-stranded sRNA nucleic acids into mouse intestinal tissue: can effectively orally deliver
- oral delivery of single-stranded sRNA nucleic acids into mouse kidney tissue: can effectively orally deliver
- oral delivery of single-stranded sRNA nucleic acids into mouse liver tissue: can effectively orally deliver
- oral delivery of single-stranded sRNA nucleic acids into mouse lung tissue: can effectively orally deliver
- oral delivery of single-stranded sRNA nucleic acids into mouse spleen tissue: can effectively orally deliver
- oral delivery of single-stranded sRNA nucleic acids into mouse stomach tissue: can effectively orally deliver
